{"source": "patent EP1298214A2", "about": "“Plant thioesterases” (Calgene LLC, priority 1990, dated 1991)", "key": {"[1]": {"system": "Cuphea C10-preferring acyl-ACP thioesterase (preparation from Example 9C)", "assay": "Acyl-ACP hydrolysis by the Cuphea preparation from Example 9C", "format": "biochemical, Cuphea hookeriana", "details": "0.5µM acyl-ACP, pH 9, 30°C for 60 min; corrected for non-enzymatic hydrolysis", "description": "As a more preferred alternative to Example 9A or 9B, forty grams of polyvinylpolypyrrolidone (PVPP) are mixed with 550 ml \"extraction buffer\" comprising 200 mM bis-Tris-HCl pH 6., 10mM 2-mercaptoethanol, 1% (w/v) polyvinylpyrrolidone-10. To this mixture are added 40g frozen Cuphea seeds. The mixture is then blended in a Polytron homogenizer until no intact seeds remain and the slurry is smooth. This and all subsequent steps are conducted at 0-4°C. The preparation is centrifuged at 12,000xg for 20 min and further clarified by filtration through Miracloth.\nThis preparation is mixed with 100ml of settled hydroxyapatite which has been equilibrated with \"buffer A\" (50mM bis-Tris-HCl pH 6., […] 2-mercaptoethanol). Three extract volumes of 10mM 2-mercaptoethanol are then added slowly over 30 min, with constant stirring. The hydroxyapatite gel is collected on a sintered glass funnel and rinsed with buffer A until the effluent is colorless. The collected hydroxyapatite is then transferred to a column and further rinsed with buffer A at 2ml/min until the column is packed. A 400ml elution gradient is applied (2ml/min), from buffer A to buffer B (300mM potassium phosphate pH 6.9 in buffer A). Effluent fractions are assayed for hydrolysis of 10:0-ACP. Two overlapping peaks of activity are obtained. The fractions comprising the later-eluting peak are pooled and dialyzed against buffer A.\nThe dialyzed material is applied at 1.3ml/min to a 2.5 x 6.5cm column of Blue 4 Agarose (Sigma Chemical Co.; St. Louis, MO) equilibrated with buffer A. The column is washed with buffer A, and enzyme activity is subsequently eluted with a 400ml gradient from buffer A to buffer C (buffer A containing 1M NaCl). The eluted fractions contain three peaks of 10:0-ACP hydrolysis activity. Those fractions comprising the second peak to elute (eluted by approximately 0.4m NaCl) are pooled and dialyzed against buffer A. […]\nThe preparation from Example 9C is relatively selective in its hydrolysis of acyl-ACP thioesters, as shown in the following table: (These activities were determined as follows. Twenty five µl of sample were added to 75µl assay buffer comprising 100mM glycine-KOH pH 9, 0.2% (w/v) CHAPS, 10mM 2-mercaptoethanol, and containing radiolabeled acyl-ACP for a final concentration of 0.5µM. After incubation at 30°C for 60 min, the reaction was terminated by addition of 0.5ml 10% (v/v) acetic acid, and the liberated fatty acid product was extracted with 1ml diethyl ether. Enzyme activity was measured by the radioactivity of this ether extract, determined by liquid scintillation counting. […]"}, "[2]": {"system": "Bay seeds extractable C12-preferring acyl-ACP thioesterase and lauroyl-CoA hydrolysis activity", "assay": "Extractable hydrolysis activity at two stages of Bay seed development", "format": "biochemical, Umbellularia californica", "details": "cpm ether-extractable radioactivity", "description": "To assay for C12 thioesterase activity the following mixture is incubated at 30° for 30 min: \"buffer\" comprising 7mM KH2PO4-KOH pH 8, 20% v/v glycerol, 1mM dithiothreitol (DTT), 0.1% v/v Triton X100; sample to be tested for activity in the same or similar buffer as the \"extraction buffer\" described in Example 2; and 5µl of ^14C-radiolabeled lauroyl-ACP substrate for a total volume of 100µl and final lauroyl-ACP concentration of 0.5µM. Lauroyl-ACP substrate is prepared according to the method of Rock et al (Methods in Enzymology (1981) 72:397-403), using ACP prepared from Escherichia coli by the method of Rock and Cronan (Methods in Enzymology (1981) 71:341-351). The laurate is radiolabeled in the carboxylate group at a specific radioactivity of 50-60µCi/µmol.\nThe reaction is stopped by adding 0.5ml cold (0°) 10% v/v acetic acid. The fatty acid product of the hydrolytic enzyme action is extracted away from the unhydrolyzed substrate by adding 1ml diethyl ether and mixing vigorously. After settling for a few minutes the upper ether layer is transferred to 5ml scintillation fluid for determination of radioactivity by liquid scintillation spectrometry. Additional ether extractions may be performed to recover remaining traces of the reaction product for more accurate quantitation of the enzyme activity if desired. The amount of ether-extracted radioactivity is a direct measure of C12-preferring acyl-ACP thioesterase activity, provided the amount of enzyme is not sufficient to hydrolyze more than about 25% of the substrate. With greater activity than this the relationship between radioactivity in the ether layer and the quantity of enzyme becomes markedly nonlinear. The enzyme preparation must then be diluted appropriately to bring the activity into the linear range of the assay.\nFurther evidence that the C12-preferring acyl-ACP thioesterase is involved in the biosynthesis of laurate groups that predominate in the Bay seeds comes from a comparison of the extractable activity of the enzyme at two different stages of seed development. As shown in the following table, Table 5, very young seeds, which contain only long-chain fatty acids and insignificant amounts of laurate, yield much less C12-preferring ACP thioesterase than older seeds that have accumulated significant amounts of laurate. Thus it appears that significant activity of this enzyme is only present when the seeds are accumulating laurate. Additionally, there appears to be much less difference in lauroyl-CoA hydrolysis activity, consistent with their being different enzymes as discussed above in Example 5."}}}
{"substance": "14:0-ACP", "values": [{"measurement": "Activity", "setting": "[1]", "value": 30, "unit": "cpm"}]}
{"substance": "16:0-ACP", "values": [{"measurement": "Activity", "setting": "[1]", "value": 262, "unit": "cpm"}]}
{"substance": "decanoyl-ACP [10:0-ACP]", "values": [{"measurement": "Activity", "setting": "[1]", "value": 1010, "unit": "cpm"}]}
{"substance": "lauroyl-ACP [12:0-ACP]", "values": [{"measurement": "Activity", "setting": "[1]", "value": 393, "unit": "cpm"}, {"measurement": "Hydrolysis / Thioesterase Activity In Assays", "setting": "[2]; Normal Seeds (2g/cotyledon pair)", "value": 4704, "unit": "cpm"}, {"measurement": "Hydrolysis / Thioesterase Activity In Assays", "setting": "[2]; Young Seeds (0.5g/cotyledon pair)", "value": 376, "unit": "cpm"}]}
